Data reported in article PMC12295086, “CtGH76, a Glycoside Hydrolase 76 from Chaetomium thermophilum, with Elongated Glycan-Binding Canyon” (International Journal of Molecular Sciences, 2025).

Target: T1, CtGH76 (Thermochaetoides thermophila, UniProt G0S5Y9)
T1 construct: gene CTHT_0025410; M1-M50 omitted (precursor 439 aa, predicted signal peptide M1-V60); N-terminal His10-tag removed with TEV; pET28a, E. coli SHuffle T7 Express; one molecule per asymmetric unit
Assay: X-ray crystal structure, crystal soaking
Type: binding
Conditions: soaked with mannose; subsites −4, −2 and +3

T1 sequence (G0S5Y9 entry or part of it): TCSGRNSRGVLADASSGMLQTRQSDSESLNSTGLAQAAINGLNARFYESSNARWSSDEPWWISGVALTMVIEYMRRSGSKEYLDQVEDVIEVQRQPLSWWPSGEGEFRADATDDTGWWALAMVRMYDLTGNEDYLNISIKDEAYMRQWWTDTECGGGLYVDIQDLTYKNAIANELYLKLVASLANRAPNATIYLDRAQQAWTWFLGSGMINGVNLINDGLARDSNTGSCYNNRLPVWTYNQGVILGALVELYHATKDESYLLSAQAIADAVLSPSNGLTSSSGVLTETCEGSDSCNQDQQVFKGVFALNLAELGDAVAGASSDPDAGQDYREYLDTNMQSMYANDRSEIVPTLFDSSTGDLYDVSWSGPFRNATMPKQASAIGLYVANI

Question: Which “X-ray crystal structure, crystal soaking” value does the source give for `OC[C@H]1OC(O)[C@@H](O)[C@@H](O)[C@@H]1O` (stereo partly shown) [mannose] here?
Answer: Soaking with mannose in CtGH76 identified potential sugar-binding subsites analogous to CtDfg5
